# Experimental data from patent US20250339569A1, “CARBONIC ANHYDRASE IX LIGANDS” (priority 2021, published 2025).
# Like-named read-outs stand apart in the source and are kept apart here. Starred links: 1 amine or outer side, 2 acyl side, 3 side chain; linkers in the order of their positions; H or OH if unused. Positions of bridges follow the written chain, without caps; N, C: chain ends. Non-standard residues stand in square brackets, D forms with d. Residues, ends and D or L forms follow the SMILES beside them. *: point of attachment. NH(CH2)3NHDOTA = O=C(O)CN1CCN(CC(=O)O)CCN(CC(=O)NCCCN*)CCN(CC(=O)O)CC1; X25 = CC(=O)N[C@H](CCC(=O)O)C(=O)Nc1cccc(C[C@@H](N[*:1])C(=O)[*:2])c1; X3 = O=C(O)CN1CCN(CC(=O)O)CCN(CC(=O)NCCCOCCOCCOCCCN*)CCN(CC(=O)O)CC1; X32 = CC(=O)N[C@H](CC(=O)O)C(=O)Nc1cccc(C[C@@H](N[*:1])C(=O)[*:2])c1; NH(1-deoxy-D-glucityl) = OC[C@@H](O)[C@@H](O)[C@H](O)[C@@H](O)CN*; X21 = NS(=O)(=O)CCC(=O)Nc1cccc(C[C@H](N[*:1])C(=O)[*:2])c1; DOTA = O=C(O)CN1CCN(CC(=O)O)CCN(CC(=O)*)CCN(CC(=O)O)CC1; X6 = O=C(O)CCC(=O)Nc1cccc(C[C@H](N[*:1])C(=O)[*:2])c1; X22 = CC(C)CC(=O)Nc1cccc(C[C@H](N[*:1])C(=O)[*:2])c1; X7 = O=C([C@H](Cc1cccc(N[*:3])c1)N[*:1])[*:2]; Propanoyl(3-SO2NH2) = NS(=O)(=O)CCC(=O)*; Phe(4-NH2) = Nc1ccc(C[C@H](N)C(=O)O)cc1; mXylylene = c1cc(C[*:1])cc(C[*:2])c1; X13 = O=C1NC2NC(=O)N(CC(=O)*)C2N1; X2 = O=C(CN1CCC(N[*:1])CC1)[*:2]; Suc = O=C(CCC(=O)[*:2])[*:1]; Dap = NC[C@H](N)C(=O)O; Sar = CNCC(=O)O
# How the values were obtained:
# [1] = target: T1, CAIX-expressing human HT-29 colorectal cancer cells (Homo sapiens, UniProt Q16790); assay: FACS binding assay (IC50 determination, competition with tracer 3BP-2776 or 3BP-4149); conditions: 4° C., 1 hour, read-out: pIC50 category (activity) (converted)
# T1 construct: CAIX-expressing human HT-29 colorectal cancer cells; host or cells: HT-29 human colorectal cancer cells
# Outline: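 HT-29 cells in FACS buffer (PBS, 1% FCS) at 500.000 cells/ml were exposed to compounds competing with a labelled tracer, with biotinylated compounds detected by 1 μg/mL APC-streptavidin for 30 min on ice. APC/Cy5 median fluorescence was read by flow cytometry and IC50 derived by 4PL fit.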
# [2] = target: T2, human carbonic anhydrase IX (hCAIX-Fc) (Homo sapiens, UniProt Q16790); assay: Surface plasmon resonance assay with hCAIX-Fc; assay type: binding; conditions: 25° C.; for t1/2 category (activity): SPR dissociation half-life, hCAIX-Fc; for Kd: SPR, hCAIX-Fc captured, read-out: pKD category (activity) (converted)
# T2 construct: purchased SinoBliological (Sino Biological) 10107-H02H
# [3] = FACS binding assay, HT-29 cells, competition with tracer 3BP-4149 (3 nM, Cy5-labeled)
# [4] = FACS binding assay, HT-29 cells, competition with tracer 3BP-2776 (10 nM, biotin-labeled)
# [5] = FACS competition on HT-29 cells, Tracer ID 3BP-2776 (10 nM, biotin-labeled)
Structure (SMILES),"IC50 [1, 3]",t1/2 category (activity) [2],Kd [2],"IC50 [1, 4]","IC50 [1, 5]"
CC(=O)N[C@H](CCC(=O)O)C(=O)Nc1cccc(C[C@H]2NC(=O)[C@H](CC(=O)O)NC(=O)[C@H]3CCCN3C(=O)[C@H](CCC(=O)O)NC(=O)[C@@H](NC(=O)[C@H](Cc3ccc(O)cc3)NC(=O)[C@@H](NC(=O)CN3CCC(NC(=O)CN4CCN(CC(=O)O)CCN(CC(=O)O)CCN(CC(=O)O)CC4)CC3)C(C)C)CSCc3cccc(c3)CSC[C@@H](C(N)=O)NC(=O)[C@H](CO)NC(=O)[C@H](Cc3c[nH]c4ccccc34)NC(=O)[C@H]([C@@H](C)O)NC(=O)[C@H](CC(C)C)NC2=O)c1 [3BP-4362] ({DOTA}-[X2]VYCE[dP]D[X25]LTWSC-NH2; linker 4-13 via mXylylene),10 to 79.4 nM,B (t1/2 between 5.1 and 15.0 minutes),< 10 nM,–,–
CC(C)CC(=O)Nc1cccc(C[C@@H]2NC(=O)[C@H](CC(=O)O)NC(=O)[C@H]3CCCN3C(=O)[C@H](CCC(=O)O)NC(=O)[C@@H](NC(=O)[C@H](Cc3ccc(O)cc3)NC(=O)[C@@H](NC(=O)CN3CCC(NC(=O)CN4CCN(CC(=O)O)CCN(CC(=O)O)CCN(CC(=O)O)CC4)CC3)C(C)C)CSCc3cccc(c3)CSC[C@@H](C(N)=O)NC(=O)[C@H](CO)NC(=O)[C@H](Cc3c[nH]c4ccccc34)NC(=O)[C@H]([C@@H](C)O)NC(=O)[C@H](CC(C)C)NC2=O)c1 [3BP-4236] ({DOTA}-[X2]VYCE[dP]D[X22]LTWSC-NH2; linker 4-13 via mXylylene),–,B (t1/2 between 5.1 and 15.0 minutes),< 10 nM,< 10 nM,–
CC(=O)N[C@@H](CO)C(=O)N[C@@H](Cc1ccc(O)cc1)C(=O)N[C@H]1CSCc2cccc(c2)CSC[C@@H](C(N)=O)NC(=O)[C@H](CCC(=O)NCCCNC(=O)CN2CCN(CC(=O)O)CCN(CC(=O)O)CCN(CC(=O)O)CC2)NC(=O)[C@H](Cc2c[nH]c3ccccc23)NC(=O)[C@H]([C@@H](C)O)NC(=O)[C@H](CC(C)C)NC(=O)[C@H](Cc2c[nH]c3ccccc23)NC(=O)[C@H](CC(=O)O)NC(=O)[C@H]2CCCN2C(=O)[C@H](CCC(=O)O)NC1=O [3BP-3873] (Ac-SYCE[dP]DWLTWE(NH(CH2)3NHDOTA)C-NH2; linker 3-12 via mXylylene),–,B (t1/2 between 5.1 and 15.0 minutes),< 10 nM,–,< 10 nM
CC(=O)N[C@H](C(=O)N[C@@H](Cc1ccc(O)cc1)C(=O)N[C@H]1CSCc2cccc(c2)CSC[C@@H](C(N)=O)NC(=O)[C@H](C)NC(=O)[C@H](Cc2c[nH]c3ccccc23)NC(=O)[C@H]([C@@H](C)O)NC(=O)[C@H](CC(C)C)NC(=O)[C@H](Cc2c[nH]c3ccccc23)NC(=O)[C@H](CC(=O)O)NC(=O)[C@@H](C)NC(=O)[C@H](CCC(=O)O)NC1=O)C(C)C [3BP-3280] (Ac-VYCE[dA]DWLTWAC-NH2; linker 3-12 via mXylylene),–,B (t1/2 between 5.1 and 15.0 minutes),< 10 nM,–,< 10 nM
CC(C)C[C@@H]1NC(=O)[C@H](Cc2c[nH]c3ccccc23)NC(=O)[C@H](CC(=O)O)NC(=O)CN(C)C(=O)[C@H](CCC(=O)O)NC(=O)[C@@H](NC(=O)[C@H](Cc2ccc(O)cc2)NC(=O)[C@@H](NC(=O)CCC(=O)NCCCOCCOCCOCCCNC(=O)CN2CCN(CC(=O)O)CCN(CC(=O)O)CCN(CC(=O)O)CC2)C(C)C)CSCc2cccc(c2)CSC[C@@H](C(N)=O)NC(=O)[C@H](CCC(N)=O)NC(=O)[C@H](Cc2c[nH]c3ccccc23)NC(=O)[C@H]([C@@H](C)O)NC1=O [3BP-3271] ({X3-Suc}-VYCE[Sar]DWLTWQC-NH2; linker 3-12 via mXylylene),–,C (t1/2 between 2.1 and 5.0 minutes),< 10 nM,–,< 10 nM
CC(C)C[C@@H]1NC(=O)[C@H](Cc2cccc(NC(=O)CCC(=O)O)c2)NC(=O)[C@H](CC(=O)O)NC(=O)[C@H]2CCCN2C(=O)[C@H](CCC(=O)O)NC(=O)[C@@H]2CSCc3cccc(c3)CSC[C@@H](C(N)=O)NC(=O)[C@H](CNC(=O)C[C@H](NC(=O)[C@@H](NC(=O)CN3CCC(NC(=O)CN4CCN(CC(=O)O)CCN(CC(=O)O)CCN(CC(=O)O)CC4)CC3)C(C)C)C(=O)N2)NC(=O)[C@H](Cc2c[nH]c3ccccc23)NC(=O)[C@H]([C@@H](C)O)NC1=O [3BP-4377] ({DOTA}-[X2]VDCE[dP]D[X6]LTW[Dap]C-NH2; lactam 3-12; linker 4-13 via mXylylene),< 10 nM,A (t1/2>15.0 minutes),< 10 nM,–,–
CC(C)C[C@@H]1NC(=O)[C@H](Cc2c[nH]c3ccccc23)NC(=O)[C@H](CC(=O)O)NC(=O)[C@@H](CCC(=O)NC[C@H](O)[C@@H](O)[C@H](O)[C@H](O)CO)NC(=O)[C@H](CCC(=O)O)NC(=O)[C@@H](NC(=O)[C@H](Cc2ccc(O)cc2)NC(=O)[C@@H](NC(=O)CN2CCC(NC(=O)CN3CCN(CC(=O)O)CCN(CC(=O)O)CCN(CC(=O)O)CC3)CC2)C(C)C)CSCc2cccc(c2)CSC[C@@H](C(N)=O)NC(=O)[C@H](CO)NC(=O)[C@H](Cc2c[nH]c3ccccc23)NC(=O)[C@H]([C@@H](C)O)NC1=O [3BP-4119] ({DOTA}-[X2]VYCE[dE](NH(1-deoxy-D-glucityl))DWLTWSC-NH2; linker 4-13 via mXylylene),–,–,< 10 nM,< 10 nM,–
CC(C)C[C@@H]1NC(=O)[C@H](Cc2ccc(NC(=O)CCS(N)(=O)=O)cc2)NC(=O)[C@H](CC(=O)O)NC(=O)[C@H]2CCCN2C(=O)[C@H](CCC(=O)O)NC(=O)[C@@H]2CSCc3cccc(c3)CSC[C@@H](C(N)=O)NC(=O)[C@H](CNC(=O)C[C@H](NC(=O)CN3CCN(CC(=O)O)CCN(CC(=O)O)CCN(CC(=O)O)CC3)C(=O)N2)NC(=O)[C@H](Cc2c[nH]c3ccccc23)NC(=O)[C@H]([C@@H](C)O)NC1=O [3BP-4489] ({DOTA}-DCE[dP]D[Phe(4-NH2)](Propanoyl(3-SO2NH2))LTW[Dap]C-NH2; lactam 1-10; linker 2-11 via mXylylene),< 10 nM,A (t1/2>15.0 minutes),< 10 nM,–,–
CC(C)C[C@@H]1NC(=O)[C@H](Cc2cccc(NC(=O)CCS(N)(=O)=O)c2)NC(=O)[C@H](CC(=O)O)NC(=O)[C@H]2CCCN2C(=O)[C@H](CCC(=O)O)NC(=O)[C@@H](NC(=O)[C@H](Cc2ccc(O)cc2)NC(=O)[C@@H](NC(=O)CN2CCC(NC(=O)CN3CCN(CC(=O)O)CCN(CC(=O)O)CCN(CC(=O)O)CC3)CC2)C(C)C)CSCc2cccc(c2)CSC[C@@H](C(N)=O)NC(=O)[C@H](CO)NC(=O)[C@H](Cc2c[nH]c3ccccc23)NC(=O)[C@H]([C@@H](C)O)NC1=O [3BP-4407] ({DOTA}-[X2]VYCE[dP]D[X21]LTWSC-NH2; linker 4-13 via mXylylene),< 10 nM,A (t1/2>15.0 minutes),< 10 nM,–,–
CC(C)C[C@@H]1NC(=O)[C@H](Cc2cccc(NC(=O)CN3C(=O)NC4NC(=O)NC43)c2)NC(=O)[C@H](CC(=O)O)NC(=O)[C@H]2CCCN2C(=O)[C@H](CCC(=O)O)NC(=O)[C@@H](NC(=O)[C@H](Cc2ccc(O)cc2)NC(=O)[C@@H](NC(=O)CN2CCC(NC(=O)CN3CCN(CC(=O)O)CCN(CC(=O)O)CCN(CC(=O)O)CC3)CC2)C(C)C)CSCc2cccc(c2)CSC[C@@H](C(N)=O)NC(=O)[C@H](CO)NC(=O)[C@H](Cc2c[nH]c3ccccc23)NC(=O)[C@H]([C@@H](C)O)NC1=O (some centres unmarked) [3BP-4341] ({DOTA}-[X2]VYCE[dP]D[X7](X13)LTWSC-NH2; linker 4-13 via mXylylene),10 to 79.4 nM,C (t1/2 between 2.1 and 5.0 minutes),< 10 nM,–,–
CC(C)C[C@@H]1NC(=O)[C@H](Cc2c[nH]c3ccccc23)NC(=O)[C@H](CC(=O)O)NC(=O)[C@H]2CCCN2C(=O)[C@H](CCC(=O)O)NC(=O)[C@@H](NC(=O)[C@H](Cc2ccc(O)cc2)NC(=O)[C@@H](NC(=O)CN2CCC(NC(=O)CN3CCN(CC(=O)O)CCN(CC(=O)O)CCN(CC(=O)O)CC3)CC2)C(C)C)CSCc2cccc(c2)CSC[C@@H](C(N)=O)NC(=O)[C@H](CCC(=O)NC[C@H](O)[C@@H](O)[C@H](O)[C@H](O)CO)NC(=O)[C@H](Cc2c[nH]c3ccccc23)NC(=O)[C@H]([C@@H](C)O)NC1=O [3BP-4122] ({DOTA}-[X2]VYCE[dP]DWLTWE(NH(1-deoxy-D-glucityl))C-NH2; linker 4-13 via mXylylene),–,A (t1/2>15.0 minutes),< 10 nM,< 10 nM,–
CC(=O)N[C@H](CC(=O)O)C(=O)Nc1cccc(C[C@H]2NC(=O)[C@H](CC(=O)O)NC(=O)[C@H]3CCCN3C(=O)[C@H](CCC(=O)O)NC(=O)[C@@H](NC(=O)[C@H](Cc3ccc(O)cc3)NC(=O)[C@@H](NC(=O)CN3CCC(NC(=O)CN4CCN(CC(=O)O)CCN(CC(=O)O)CCN(CC(=O)O)CC4)CC3)C(C)C)CSCc3cccc(c3)CSC[C@@H](C(N)=O)NC(=O)[C@H](CO)NC(=O)[C@H](Cc3c[nH]c4ccccc34)NC(=O)[C@H]([C@@H](C)O)NC(=O)[C@H](CC(C)C)NC2=O)c1 [3BP-4364] ({DOTA}-[X2]VYCE[dP]D[X32]LTWSC-NH2; linker 4-13 via mXylylene),10 to 79.4 nM,B (t1/2 between 5.1 and 15.0 minutes),< 10 nM,–,–
